Patent US20240358693A1, “METHODS OF TREATING PAIN” (Aisa Pharma, Inc., priority 2023, published 2024)

Test system: participants with SSc-RP
Experiment: Scleroderma Health Assessment Questionnaire (SHAQ): disability indices and visual analog scales
Assay type: in vivo, human
Conditions: minus = improvement, two weeks of treatment
From the text: The standard, validated, patient reported outcome measures tool for SSc patients, the Scleroderma Health Assessment Questionnaire (SHAQ), will be used to assess the participant qualify of life. Details are attached in the Appendix. The participant quality of life will be scored, and a disability index calculated for each questionnaire completed by the patient at Screening and each in-clinic visit. The absolute change in participant quality of life from baseline to the end of each dosing period will be calculated similar to frequency data as before.
The SHAQ includes a Raynaud's VAS, which will be reported at screening and each in-clinic visit. The absolute change in Raynaud-VAS, assessed by the participants response to the SHAQ question ‘In the past 7 days, how much have your Raynaud's interfered with your daily activities?’ at baseline and the end of each dosing period will be calculated similar to frequency data as before.
The SHAQ is used to calculate a Disability Index to assess the participant qualify of life. The eight categories assessed by the Disability Index are 1) dressing and grooming, 2) arising, 3) eating, 4) walking, 5) hygiene, 6) reach, 7) grip, and 8) common daily activities. For each of these categories, patients report the amount of difficulty they have in performing two or three specific activities.
There are four possible responses for the Disability Index questions: • Without any difficulty=0 • With some difficulty=1 • With much difficulty=2 • Unable to do=3. • The highest score reported by the patient for any component question of the eight categories determines the score for that category. • If a component question is left blank or the response is too ambiguous to assign a score, then the score for that category is determined by the remaining completed question(s). • If all component questions are blank or if more than one answer is given, then follow up with the respondent is required. • If the respondent's mark is between the response columns, then move it to the closest one. If it's directly between the two, move it to the higher one.
Each of the disability items on the SHAQ has a companion aids/devices variable that is used to record what type(s) of assistance, if any, the participant uses for his/her usual activities. These variables (see below) are coded as follows: • 0=No assistance is needed. • 1=A special device is used by the patient in his/her usual activities. • 2=The patient usually needs help from another person. • 3=The patient usually needs BOTH a special device AND help from another person.
The scoring variables and scoring rules permit the computation of two disability indices, the Standard Disability Index and the Alternative Disability Index.
This question results in a new set of category scores that are computed by adjusting the score for each category, if necessary, based on the patient's use of an aid or device or assistance for that category. If either devices and/or help from another person are checked for a category, the score is set to “2”, unless the score is already “3” (i.e., scores of “0” or “1” are increased to “2”). For example, if the highest score for the dressing category is “1”, and the patient says they use a device for dressing, the computed category score would be “2”. The sum of the computed categories scores is then calculated and divided by the number of categories answered. This gives a score in the 0 to 3 range.
The aid and device variables are not used to calculate the alternative disability index; it is calculated by adding the scores for each of the categories and dividing by the number of categories answered. This gives a score in the 0 to 3 range.
The standard, validated, patient reported outcome measures tool for SSc patients, the SHAQ, was collected at the time points specified in the study schedules (FIG. 2 and FIGS. 4A and 4B) to assess the participant's quality of life. The SHAQ included a Raynaud's VAS that will also be reported separately.

[1] = Cilnidipine 20 mg n = 3, with Tadalafil 5 mg n = 4

`COCCOC(=O)C1=C(C)NC(C)=C(C(=O)OC/C=C/c2ccccc2)C1c1cccc([N+](=O)[O-])c1` (centres unmarked) [Cilnidipine 20 mg] was tested, and the “SHAQ Alternative Disability Index, mean % change” value [1] was −42%, the “SHAQ Breathing Difficulty, mean % change” value [1] was −73% and the “SHAQ Burden of Fingers Ulcers, mean % change” value [1] was −17%. The “SHAQ Overall Scleroderma, mean % change” value [1] was −63%, the “SHAQ Pain, mean % change” value [1] was −53% and the “SHAQ Raynaud’s Difficulty, mean % change” value [1] was −49%. For the same molecule, the “SHAQ Standard Disability Index, mean % change” value [1] was −50% and the “SHAQ Intestinal Difficulty, mean % change (pooled, n = 7)” value (pooled, n = 7) was −45% (pooled,.
